From ChEMBL document CHEMBL1143352, “Structural evolutions of salicylaldoximes as selective agonists for estrogen receptor beta” (J Med Chem, 2009) come the findings set out here.

“And” between values parts separate entries of the source, which are not always exact repeats. Identical values can stand only once. Some results are limits rather than exact numbers.

The target in assay [1] is T1, Estrogen receptor beta (Homo sapiens, UniProt Q92731). In words: Displacement of [3H]estradiol from full-length human estrogen receptor beta by radiometric assay relative to estradiol. Background: Displacement assays read how much labelled ligand stays bound in the presence of the test substance.
For assay [2], the species on record is Homo sapiens. In words: Ratio of relative binding affinity for full-length human estrogen receptor beta to ratio of relative binding affinity for full length human estrogen receptor alpha.
The target in assay [3] is T1, Estrogen receptor beta.
Assay [4] deals with T2, Estrogen receptor (Homo sapiens, UniProt P03372).
T2 sequence (P03372 whole entry): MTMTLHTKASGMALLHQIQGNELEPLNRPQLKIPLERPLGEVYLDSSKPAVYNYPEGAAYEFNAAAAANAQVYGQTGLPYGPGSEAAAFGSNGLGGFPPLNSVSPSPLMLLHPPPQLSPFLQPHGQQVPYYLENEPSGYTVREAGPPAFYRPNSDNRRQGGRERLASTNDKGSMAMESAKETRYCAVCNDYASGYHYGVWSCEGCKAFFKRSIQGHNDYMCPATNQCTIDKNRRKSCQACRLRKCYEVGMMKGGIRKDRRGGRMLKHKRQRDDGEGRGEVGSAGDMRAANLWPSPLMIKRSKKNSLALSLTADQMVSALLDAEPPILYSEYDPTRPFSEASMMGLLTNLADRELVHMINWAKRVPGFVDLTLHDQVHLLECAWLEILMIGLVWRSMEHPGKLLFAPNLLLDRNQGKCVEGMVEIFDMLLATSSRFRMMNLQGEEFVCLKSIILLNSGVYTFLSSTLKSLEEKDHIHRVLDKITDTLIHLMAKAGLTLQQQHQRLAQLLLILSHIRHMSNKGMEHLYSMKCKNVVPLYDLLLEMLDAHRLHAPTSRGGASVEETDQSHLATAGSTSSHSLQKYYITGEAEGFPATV
Description: Agonist activity at full-length human estrogen receptor alpha expressed in human HEC1 cells assessed as transcriptional activation after 24 hrs by luciferase reporter gene assay

Assay [5] concerns the target T1, Estrogen receptor beta. The assay is described as follows: Agonist activity at full-length human estrogen receptor beta expressed in human HEC1 cells assessed as transcriptional activation after 24 hrs by luciferase reporter gene assay relative to estradiol. As to conditions: HEC-1. The assay is classed as functional, cell-based. Background: In a reporter assay the amount or activity of a reporter protein is the signal.

T1 sequence (Q92731 whole entry): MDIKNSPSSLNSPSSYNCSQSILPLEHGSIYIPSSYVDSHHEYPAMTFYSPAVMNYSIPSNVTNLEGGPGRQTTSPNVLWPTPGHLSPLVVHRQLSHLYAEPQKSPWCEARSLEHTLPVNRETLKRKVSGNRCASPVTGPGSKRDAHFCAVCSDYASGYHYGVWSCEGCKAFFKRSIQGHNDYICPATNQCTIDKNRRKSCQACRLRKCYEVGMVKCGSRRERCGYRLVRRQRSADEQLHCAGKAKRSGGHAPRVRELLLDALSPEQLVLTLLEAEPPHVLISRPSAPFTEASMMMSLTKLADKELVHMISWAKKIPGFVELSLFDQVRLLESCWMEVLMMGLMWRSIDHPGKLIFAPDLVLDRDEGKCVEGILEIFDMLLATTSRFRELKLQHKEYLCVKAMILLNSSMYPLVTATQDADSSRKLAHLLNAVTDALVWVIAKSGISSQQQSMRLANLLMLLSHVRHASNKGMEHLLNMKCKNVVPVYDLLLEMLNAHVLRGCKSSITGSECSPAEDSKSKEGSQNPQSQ

For `COc1ccc(-c2ccc(/C(C)=N/O)c(O)c2Cl)cc1`, the Activity in assay [1] worked out at 0.002%.
In turn, `COc1ccc(-c2ccc(/C=N/O)c(O)c2Cl)cc1F` had an Activity in assay [1] of 0.011%. Also, in assay [2], the Ratio turned out to be 1.8.
As for `COc1ccc(-c2ccc(/C(C)=N/O)c(O)c2Cl)cc1F`, in assay [1], the Activity amounted to 0.002%.
In turn, `COc1ccc(-c2ccc(O)c(/C=N/O)c2)cc1` displayed an Activity in assay [1] of 0.011%. Further, the Ratio in assay [2] is 3.7.
In the same order, the values of `C/C(=N\O)c1ccc(-c2ccc(O)cc2)c(Cl)c1O` are 0.123% and 10.
Take `O/N=C/c1cc(-c2ccc(O)cc2)ccc1O`: the Activity in assay [1] was found to be 2.64%. In addition, the Ratio in assay [2] came to 41. The EC50 (commonly the concentration needed to bring the measured effect to its halfway point) in assay [3] was 10 nM; in assay [4] it was 17 nM and 10 nM.
`COc1ccc(-c2ccc(O)c(/C=N/O)c2)cc1F` returned an Activity in assay [1] of 0.013%. Further, the Ratio in assay [2] came out at 1.9.
For the compound `O/N=C/c1ccc(-c2ccc(O)cc2)cc1O`, the Activity in assay [1] came to 0.553%. Also, the Ratio in assay [2] was 79.
In the same order, the values of `O/N=C/c1cc(-c2ccc(O)c(F)c2)ccc1O` are 0.97% and 46.
In assay [1], `C/C(=N\O)c1ccc(-c2ccc(O)c(F)c2)c(Cl)c1O` had an Activity of 0.077%. Besides, the Ratio in assay [2] amounted to 13.
As to `O/N=C/c1ccc(-c2ccc(O)c(F)c2)c(Cl)c1O`, the Activity in assay [1] was 7.01%; in assay [5], greater than 85%. In addition, the Ki (in general, the dissociation constant of the complex between target and ligand, obtained from inhibition or displacement) in assay [1] stood at 7.1 nM. Besides, the Ratio in assay [2] is 62. Besides, the EC50 in assay [3] amounted to 4.8 nM; in assay [4], 19 nM.
